Results published in patent US20210223230A1, “Neamine Compositions and Methods of Use Thereof” (President and Fellows of Harvard College, priority 2008, published 2021).

Assays:
established PIN = test: Reversal of established PIN in 12-week-old MPAKT mice; assay type: in vivo
[1] = test system: PC-3 human prostate cancer cells; settings: nude mice, literature; cited from earlier work
ANG = ANG (Homo sapiens, UniProt P03950); settings: screen of 18,310 compounds; cited from earlier work
AKT-induced PIN = test: Prevention of AKT-induced PIN in 4-week-old MPAKT mice by small-molecule ANG inhibitors; settings: daily i.p. 4 weeks from week 4
LNCaP cells = test: LNCaP cell proliferation in phenol red-free and steroid-free medium; assay type: cell-based, human; settings: ANG 0.1 μg/ml, DHT 10 nM
Procedure: (§1) (a) ANG stimulates LNCaP cell proliferation in the absence of androgens. Cells were culture in phenol red-free and charcoal/dextran-stripped (steroid-free) FBS for 2 day and stimulated with DHT (10 nM), ANG (0.1 μg/ml), or a mixture of the two for the time indicated. (b) Dose dependence. ANG was added to the cells and cultured for 4 days. (c) Anti-ANG mAb 26-2F inhibits DHT-induced cell proliferation. LNCaP cells were stimulated with 10 nM DHT in the presence of 26-2F or a control non-immune IgG for 3 days. (d) ANG over-expression promotes LNCaP proliferation in vitro. The vector control (pCI-Neo) and ANG transfectants (pCI-ANG) were cultured in phenol red-free and steroid-free medium for the time indicated. (e) Xenograft growth in castrated SCID mice. A mixture of 70 μl cell suspension (1×10^6 cells) and 30 μl Matrigel was injected s.c. per mouse (8 per group). The mice were castrated or sham-operated at the same time. Tumors were inspected and measured twice a week and the animals were sacrificed after 8 weeks of observation. (f) Endogenous ANG of LNCaP cells is essential for androgen-induced rRNA transcription. LNCaP cells were cultured in phenol red-free and steroid-free medium and incubated with DHT (10 nM), ANG (0.1 μg/ml), anti-ANG mAb 26-2F (60 μg/ml) or a mixture of DHT and 26-2F for 2 h. […]

47S rRNA = test: rRNA transcription in LNCaP cells by Northern blotting; assay type: cell-based, human; settings: ANG 0.1 μg/ml, 26-2F 60 μg/ml, 2 h
Procedure: as §1

AR = target: T1, AR (Homo sapiens, UniProt P10275, T878A); test: Nuclear translocation of AR in LNCaP cells by immunofluorescence; assay type: cell-based; settings: ANG 0.1 μg/ml, 2 h
T1 construct: in untreated LNCaP cells, AR was diffusely distributed throughout the cytoplasm; endogenous in cells; host or cells: LNCaP
T1 sequence (P10275 1-920 T878A): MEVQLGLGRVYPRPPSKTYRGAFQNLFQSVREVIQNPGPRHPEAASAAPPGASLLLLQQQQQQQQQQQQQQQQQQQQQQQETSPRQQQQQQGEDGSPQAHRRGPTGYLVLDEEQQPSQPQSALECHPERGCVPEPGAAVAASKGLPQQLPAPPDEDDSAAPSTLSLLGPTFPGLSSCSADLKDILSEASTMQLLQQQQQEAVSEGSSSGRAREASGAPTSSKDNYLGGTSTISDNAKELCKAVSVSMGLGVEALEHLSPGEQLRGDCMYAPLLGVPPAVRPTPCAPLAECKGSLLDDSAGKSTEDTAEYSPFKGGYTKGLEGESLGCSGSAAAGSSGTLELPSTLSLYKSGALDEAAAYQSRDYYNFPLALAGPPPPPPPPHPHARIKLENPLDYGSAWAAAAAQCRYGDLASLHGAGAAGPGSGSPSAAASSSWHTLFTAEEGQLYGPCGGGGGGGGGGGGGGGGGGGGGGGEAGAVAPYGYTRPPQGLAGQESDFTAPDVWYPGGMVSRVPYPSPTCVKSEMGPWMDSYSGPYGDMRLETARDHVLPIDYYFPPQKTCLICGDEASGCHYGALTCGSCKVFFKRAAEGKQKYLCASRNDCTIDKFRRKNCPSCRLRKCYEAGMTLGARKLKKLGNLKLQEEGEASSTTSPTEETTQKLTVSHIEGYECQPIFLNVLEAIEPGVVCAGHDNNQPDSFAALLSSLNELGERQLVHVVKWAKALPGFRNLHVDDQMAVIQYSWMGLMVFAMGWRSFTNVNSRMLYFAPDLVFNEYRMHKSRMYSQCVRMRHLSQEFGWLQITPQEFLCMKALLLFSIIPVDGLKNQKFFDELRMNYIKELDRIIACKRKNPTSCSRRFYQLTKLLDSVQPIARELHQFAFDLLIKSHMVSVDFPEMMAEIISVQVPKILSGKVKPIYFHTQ
Procedure: FIG. 19 is a four panel figure that depicts a series of photographs showing immunofluorescently labeled LNCaP cells, showing the effect of ANG on nuclear translocation of AR (panels a-d). LNCaP cells were cultured in charcoal/dextran-stripped FBS and phenol red-free medium for 2 days, and incubated with ANG (0.1 μg/ml), DHT (10 nM) or DHT (10 nM)+anti-ANG mAb 26-2F (30 μg/ml) for 2 h. The cells were fixed and stained for AR by immunofluorescence.

[2] = test system: PC-3, PC-3M, and DU-145 cells; test: Proliferation of androgen-independent prostate cancer cells; assay type: cell-based, human
PIN = test: Injection of human ANG protein into the ventral prostate of MPAKT mice (cancer invasion); assay type: in vivo; settings: 50 μg per mouse, 9 weeks-old MPAKT mice, sacrificed 2 weeks later
Procedure: Human ANG protein, 50 μg per mouse, was injected into the surgically exposed ventral prostate of 9 weeks-old MPAKT mice. The mice were sacrificed 2 weeks later and the prostates were processed for H&E staining. Cells invading outside of the basement membrane are indicated by arrows.

[3] = daily i.p. 4 weeks from week 12

Sequence of ANG (P03950 25-147): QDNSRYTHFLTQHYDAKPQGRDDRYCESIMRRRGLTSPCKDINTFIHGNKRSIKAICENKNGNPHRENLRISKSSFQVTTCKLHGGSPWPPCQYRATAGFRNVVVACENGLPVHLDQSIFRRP

| Compound | AKT expression and phosphorylation (IHC) (established PIN; [3]) | established PIN phenotype (H&E) (established PIN; [3]) | rRNA transcription / 47S rRNA level (ISH) (established PIN; [3]) | apoptotic index (established PIN; neomycin 10 mg/kg, N65828 4 mg/kg daily i.p. 4 weeks from week 12, control 0.95±0.11) | xenograft growth of PC-3 cells [1] | selectivity of enzymatic inhibition, ANG vs RNase A (ANG) | 47S rRNA level / transcription (ISH) (AKT-induced PIN) | AKT phosphorylation (IHC) (AKT-induced PIN) | localization of ANG in prostate epithelial cells (IHC) (AKT-induced PIN) | PIN formation (H&E) (AKT-induced PIN; neamine, neomycin 10 mg/kg, N65828 4 mg/kg) | LNCaP cell proliferation in the absence of androgens (LNCaP cells) | rRNA transcription in LNCaP cells (47S rRNA) | nuclear translocation of AR in the absence of androgen (AR) | effect of exogenously added ANG on cell proliferation [2] | animals with micro invasions (PIN) |
| --- | --- | --- | --- | --- | --- | --- | --- | --- | --- | --- | --- | --- | --- | --- | --- |
| Nc1ccc(N=Nc2ccc(-c3ccc(O)cc3)cc2)c2ccc(S(=O)(=O)O)cc12 [N65828, 8-amino-5-(4′-hydroxybiphenyl-4-ylazo)naphthalene-2-sulfonate] | not different from that of the control group | reversed | dramatically decreased | 2.02±0.21 caspase 3 positive cells per duct | inhibit | preferentially inhibited | inhibited | not altered | remained strongly in the nucleus | prevented PIN formation | – | – | – | – | – |
| ANG: angiogenin, a 14 kDa angiogenic ribonuclease | – | – | – | – | – | – | – | – | – | – | stimulates | stimulated | stimulated | no effect | 2 of the 4 |
